± gives the expanded uncertainty stated by the source.
Experiments:
[1] = DTA; for Normal melting temperature: Crystal
[2] = Molar enthalpy of transition or fusion; details: DSC

| SMILES | Normal melting temperature [1] | Molar enthalpy of transition or fusion ([2]; Crystal) | Triple point temperature ([1]; Crystal 2) | Molar enthalpy of transition or fusion ([2]; Crystal 2) | Glass transition temperature ([1]; Glass) |
| --- | --- | --- | --- | --- | --- |
| CCCCn1cc[n+](C)c1.[Br-] [1-butyl-3-methylimidazolium bromide] | 78.00 ± 2 °C | 6.93 ± 0.239 kcal/mol |  |  |  |
| CCCCn1cc[n+](C)c1.[Cl-] [1-butyl-3-methylimidazolium chloride] | 74.00 ± 2 °C | 4.3 ± 0.239 kcal/mol | 303.15 ± 2 K | 0.645 ± 0.143 kcal/mol |  |
| CCCCn1cc[n+](C)c1.[I-] [1-butyl-3-methylimidazolium iodide] |  |  |  |  | -70.00 ± 5 °C |

Source: the NIST ThermoML archive (doi:10.1016/j.tca.2013.09.023)
